Calls of active or inactive are those of the source. The rule behind the calls is not given here.

Broadly, the IC50 is the concentration needed to halve the response being measured.

In test [1] the target is T1, Bromodomain-containing protein 4 (Homo sapiens, UniProt O60885). As to the kind of experiment: Displacement of fluorescein-labeled JQ1 from His6/TEV cleavage site fused human BRD4 (residues N44 to E168) expressed in Escherichia coli BL21 (DE3) incubated for 60 min by Fluorescence polarization assay.
In test [2] the target is T2, Histone-lysine N-methyltransferase EZH2 (Homo sapiens, UniProt Q15910).
Target sequence in this assay (Q15910 whole entry): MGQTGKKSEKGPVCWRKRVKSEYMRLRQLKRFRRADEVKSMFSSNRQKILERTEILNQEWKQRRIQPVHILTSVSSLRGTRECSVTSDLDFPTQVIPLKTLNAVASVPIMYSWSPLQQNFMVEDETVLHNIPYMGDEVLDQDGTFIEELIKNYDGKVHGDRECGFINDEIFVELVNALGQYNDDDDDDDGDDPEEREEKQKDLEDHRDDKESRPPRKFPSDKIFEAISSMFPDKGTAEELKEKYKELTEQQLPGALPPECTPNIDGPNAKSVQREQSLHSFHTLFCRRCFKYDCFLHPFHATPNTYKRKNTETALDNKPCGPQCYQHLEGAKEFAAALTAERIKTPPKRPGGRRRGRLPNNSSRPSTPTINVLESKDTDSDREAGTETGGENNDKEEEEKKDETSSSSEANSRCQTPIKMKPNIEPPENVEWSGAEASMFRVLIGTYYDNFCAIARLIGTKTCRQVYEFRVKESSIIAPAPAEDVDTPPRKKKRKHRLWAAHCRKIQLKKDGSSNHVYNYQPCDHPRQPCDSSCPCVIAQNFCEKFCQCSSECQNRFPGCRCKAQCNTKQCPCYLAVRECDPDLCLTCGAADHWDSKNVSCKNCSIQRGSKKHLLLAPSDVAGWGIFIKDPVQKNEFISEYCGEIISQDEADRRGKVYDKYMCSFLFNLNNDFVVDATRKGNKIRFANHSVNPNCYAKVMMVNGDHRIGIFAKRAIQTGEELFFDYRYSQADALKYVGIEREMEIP
Test [3] has as its system ASPC1. As to the kind of experiment: Antiproliferative activity against human ASPC1 cells assessed as cell growth inhibition incubated for 6 days by MTS assay. Particulars: ASPC1, 144 h. Format: functional, cell-based. In general terms: Tetrazolium dyes change colour on reduction, which living cells bring about.
For test [4], the target named is T2, Histone-lysine N-methyltransferase EZH2. Put plainly: Inhibition of EZH2 in human ASPC1 cells assessed as decrease in H3K27me3 levels at 1 uM incubated for 72 hrs by Western blot analysis. Type of test: cell-based. (In general: A western blot detects proteins with antibodies after separation by electrophoresis.)
Target sequence in this assay (Q15910 whole entry, looked up): as the sequence (Q15910 whole entry) above
The target of test [5] is T1, Bromodomain-containing protein 4. Put plainly: Inhibition of BRD4 in human ASPC1 cells assessed as decrease in c-Myc level at 1 uM incubated for 72 hrs by Western blot analysis. Format: cell-based.
Test [6] deals with HCT-116. Put plainly: Induction of apoptosis in human HCT116 cells assessed as early apoptotic cells at 10 uM measured after 72 hrs by flow cytometry (reference value: 2.8 %). Format: functional.

Regarding `CCN(c1cc(-c2ccc(NC(=O)CCOCCOCCOCCNC(=O)C[C@@H]3N=C(c4ccc(Cl)cc4)c4c(sc(C)c4C)-n4c(C)nnc43)cc2)cc(C(=O)NCc2c(C)cc(C)[nH]c2=O)c1C)C1CCOCC1`, the half-inhibitory concentration (IC50) in test [1] is 604 nM; in test [2] it was 1040 nM; in test [3] (read-out: IC50) it was 9.25 µM.
In the same order, the values of `CCN(c1cc(-c2ccc(NC(=O)C[C@@H]3N=C(c4ccc(Cl)cc4)c4c(sc(C)c4C)-n4c(C)nnc43)cc2)cc(C(=O)NCc2c(C)cc(C)[nH]c2=O)c1C)C1CCOCC1` are 2840 nM, 16100 nM and 13.8 µM.
As to `CCN(c1cc(-c2ccc(CNC(=O)C[C@@H]3N=C(c4ccc(Cl)cc4)c4c(sc(C)c4C)-n4c(C)nnc43)cc2)cc(C(=O)NCc2c(C)cc(C)[nH]c2=O)c1C)C1CCOCC1`, the IC50 is 1480 nM in test [1], 29800 nM in test [2] and 6.5 µM in test [3] (read-out: IC50). Further, the inhibition entry in test [4] was “Active”.
In the same order, the values of `CCN(c1cc(-c2ccc(CCNC(=O)C[C@@H]3N=C(c4ccc(Cl)cc4)c4c(sc(C)c4C)-n4c(C)nnc43)cc2)cc(C(=O)NCc2c(C)cc(C)[nH]c2=O)c1C)C1CCOCC1` are 945 nM, 77800 nM, 2.61 µM and “Active”.
On to `CCN(c1cc(-c2ccc(OCCCCNC(=O)C[C@@H]3N=C(c4ccc(Cl)cc4)c4c(sc(C)c4C)-n4c(C)nnc43)cc2)cc(C(=O)NCc2c(C)cc(C)[nH]c2=O)c1C)C1CCOCC1`, for which the values for the IC50 in test [1], in test [2] and in test [3] (read-out: IC50) were 82 nM, 420 nM and 0.99 µM, respectively. Further, the inhibition result in test [4] and in test [5] was “Active” in each case.
Take `CCN(c1cc(-c2ccc(NC(=O)CCCCCCCNC(=O)C[C@@H]3N=C(c4ccc(Cl)cc4)c4c(sc(C)c4C)-n4c(C)nnc43)cc2)cc(C(=O)NCc2c(C)cc(C)[nH]c2=O)c1C)C1CCOCC1`: the IC50 in test [1] was 2340 nM; in test [2], 550 nM; in test [3] (read-out: IC50), 17.5 µM.
As for `CCN(c1cc(-c2ccc(OCCNC(=O)C[C@@H]3N=C(c4ccc(Cl)cc4)c4c(sc(C)c4C)-n4c(C)nnc43)cc2)cc(C(=O)NCc2c(C)cc(C)[nH]c2=O)c1C)C1CCOCC1`, the half-inhibitory concentration (IC50) in test [1] was found to be 1540 nM; in test [2], 7550 nM; in test [3] (read-out: IC50) it was 1.86 µM. In addition, the inhibition result in test [5] is “Active”.
Consider `Cc1sc2c(c1C)C(c1ccc(Cl)cc1)=N[C@@H](CC(=O)OC(C)(C)C)c1nnc(C)n1-2`, for which, in test [3], the concentration for half-maximal inhibition (IC50) is 3.39 µM. The Activity in test [6] is on record as 20.3%.
`CCN(c1cc(-c2ccc(CN3CCOCC3)cc2)cc(C(=O)NCc2c(C)cc(C)[nH]c2=O)c1C)C1CCOCC1` [TAZEMETOSTAT]: the 50% inhibitory concentration (IC50) in test [3] (read-out: IC50) was greater than 30 µM. The Activity in test [6] stood at 2.8%.
Consider `CCN(c1cc(-c2ccc(NC(=O)CCCCCCNC(=O)C[C@@H]3N=C(c4ccc(Cl)cc4)c4c(sc(C)c4C)-n4c(C)nnc43)cc2)cc(C(=O)NCc2c(C)cc(C)[nH]c2=O)c1C)C1CCOCC1`, for which the results for the concentration for half-maximal inhibition (IC50) in test [1], in test [2] and in test [3] (read-out: IC50) were 580 nM, 530 nM and 11.2 µM, respectively.
Turning to `CCN(c1cc(-c2ccc(OCCCNC(=O)C[C@@H]3N=C(c4ccc(Cl)cc4)c4c(sc(C)c4C)-n4c(C)nnc43)cc2)cc(C(=O)NCc2c(C)cc(C)[nH]c2=O)c1C)C1CCOCC1`, the figures for the 50% inhibitory concentration (IC50) in test [1], in test [2] and in test [3] (read-out: IC50) were 1720 nM, 980 nM and 1.37 µM, respectively. In test [5], the inhibition result was “Active”.
Consider `CCN(c1cc(-c2ccc(C(=O)NCCOCCNC(=O)C[C@@H]3N=C(c4ccc(Cl)cc4)c4c(sc(C)c4C)-n4c(C)nnc43)cc2)cc(C(=O)NCc2c(C)cc(C)[nH]c2=O)c1C)C1CCOCC1`, for which the figures for the IC50 in test [1], in test [2] and in test [3] (read-out: IC50) were 248 nM, 300 nM and 7.09 µM, respectively. The inhibition result in test [4] is “Active”.

Source of the values: ChEMBL document CHEMBL5154900, “Design and Synthesis of Dual EZH2/BRD4 Inhibitors to Target Solid Tumors” (J Med Chem, 2022).
